Measured values published in patent publication US4868321A, “Isothiocyanate intermediates” (FMC Corporation, priority 1988, dated 1989).

Tests used:
Type in all cases: in vivo
[1] = test system: Rice; experiment: Preemergence Herbicidal Activity, Rice; settings: Oryza sativa, pre-emergence
Description: (§1) The herbicidal data in the following Tables 3 and 4 was obtained in the manner described in PCT published application no. […] In those tables, the test compounds are identified by numbers which correspond to those in Table 1, "kg/ha" is kilograms per hectare, and "% C" is percent control.

[2] = test system: Cotton; experiment: Postemergence Herbicidal Activity, Cotton; settings: Gossypium hirsutum, post-emergence
Description: (§2) The herbicidal data in the following Tables 3 and 4 was obtained in the manner described in PCT published application no. WO 85/01939, previously mentioned, usually employing solutions of the herbicidal compound in 50/50 acetone/water mixtures. In those tables, the test compounds are identified by numbers which correspond to those in Table 1, "kg/ha" is kilograms per hectare, and "% C" is percent control.

[3] = test system: Velvetleaf; experiment: Preemergence Herbicidal Activity, Velvetleaf; settings: Abutilon theophrasti, pre-emergence
Description: as §2

[4] = test system: Cotton; experiment: Preemergence Herbicidal Activity, Cotton; settings: Gossypium hirsutum, pre-emergence
Description: as §2

[5] = test system: Field Bindweed; experiment: Postemergence Herbicidal Activity, Field Bindweed; settings: post-emergence
Description: as §2

[6] = test system: Soybean; experiment: Postemergence Herbicidal Activity, Soybean; settings: Glycine max, post-emergence
Description: as §1

[7] = test system: Green Foxtail; experiment: Preemergence Herbicidal Activity, Green Foxtail; settings: Setaria viridis, pre-emergence
Description: as §1

[8] = test system: Field Corn; experiment: Postemergence Herbicidal Activity, Field Corn; settings: Zea mays, post-emergence
Description: as §1

[9] = test system: Barnyardgrass; experiment: Postemergence Herbicidal Activity, Barnyardgrass; settings: Echinochloa crus-galli, post-emergence
Description: as §1

[10] = test system: Field Corn; experiment: Preemergence Herbicidal Activity, Field Corn; settings: Zea mays, pre-emergence
Description: as §1

[11] = test system: Johnsongrass; experiment: Preemergence Herbicidal Activity, Johnsongrass; settings: Sorghum halepense, pre-emergence
Description: as §1

[12] = test system: Morningglory; experiment: Preemergence Herbicidal Activity, Morningglory; settings: Ipomoea, pre-emergence
Description: as §2

[13] = test system: Velvetleaf; experiment: Postemergence Herbicidal Activity, Velvetleaf; settings: Abutilon theophrasti, post-emergence
Description: as §2

[14] = test system: Green Foxtail; experiment: Postemergence Herbicidal Activity, Green Foxtail; settings: Setaria viridis, post-emergence
Description: as §1

[15] = test system: Field Bindweed; experiment: Preemergence Herbicidal Activity, Field Bindweed; settings: pre-emergence
Description: as §2

[16] = test system: Rice; experiment: Postemergence Herbicidal Activity, Rice; settings: Oryza sativa, post-emergence
Description: as §1

[17] = test system: Wheat; experiment: Preemergence Herbicidal Activity, Wheat; settings: Triticum aestivum, pre-emergence
Description: as §1

[18] = test system: Soybean; experiment: Preemergence Herbicidal Activity, Soybean; settings: Glycine max, pre-emergence
Description: as §1

[19] = test system: Wheat; experiment: Postemergence Herbicidal Activity, Wheat; settings: Triticum aestivum, post-emergence
Description: as §1

[20] = test system: Morningglory; experiment: Postemergence Herbicidal Activity, Morningglory; settings: Ipomoea, post-emergence
Description: as §2

[21] = test system: Johnsongrass; experiment: Postemergence Herbicidal Activity, Johnsongrass; settings: Sorghum halepense, post-emergence
Description: as §1

[22] = test system: Barnyardgrass; experiment: Preemergence Herbicidal Activity, Barnyardgrass; settings: Echinochloa crus-galli, pre-emergence
Description: as §1

Compound `CS(=O)(=O)Nc1cc(-n2nnn(CCCF)c2=O)c(F)cc1Cl` [Compound 2, 1-[4-chloro-2-fluoro-5-(N--methylsulfonylamino)phenyl]-1,4-dihydro-4-(3-fluoropropyl)-5H--tetrazol-5-one] has a plant injury at 250 g/ha ([1]; 0.25 kg/ha) of 70%, a plant injury at 250 g/ha ([2]; 0.25 kg/ha) of 100% and a pest or weed control at 250 g/ha ([3]; 0.25 kg/ha) of 100%. It also gave a plant injury at 250 g/ha ([4]; 0.25 kg/ha) of 95%, a pest or weed control at 250 g/ha ([5]; 0.25 kg/ha) of 100% and a plant injury at 250 g/ha ([6]; 0.25 kg/ha) of 50%. It also gave a pest or weed control at 250 g/ha ([7]; 0.25 kg/ha) of 40%, a plant injury at 250 g/ha ([8]; 0.25 kg/ha) of 80% and a pest or weed control at 250 g/ha ([9]; 0.25 kg/ha) of 40%. For the same compound, the plant injury at 250 g/ha ([10]; 0.25 kg/ha) was 40%, the pest or weed control at 250 g/ha ([11]; 0.25 kg/ha) was 40% and the pest or weed control at 250 g/ha ([12]; 0.25 kg/ha) was 100%. The pest or weed control at 250 g/ha ([13]; 0.25 kg/ha) was 100%, the pest or weed control at 250 g/ha ([14]; 0.25 kg/ha) was 50% and the pest or weed control at 250 g/ha ([15]; 0.25 kg/ha) was 100%. For the same compound, the plant injury at 250 g/ha ([16]; 0.25 kg/ha) was 50%, the plant injury at 250 g/ha ([17]; 0.25 kg/ha) was 10% and the plant injury at 250 g/ha ([18]; 0.25 kg/ha) was 20%. The plant injury at 250 g/ha ([19]; 0.25 kg/ha) was 20%, the pest or weed control at 250 g/ha ([20]; 0.25 kg/ha) was 100% and the pest or weed control at 250 g/ha ([21]; 0.25 kg/ha) was 50%. It also gave a pest or weed control at 250 g/ha ([22]; 0.25 kg/ha) of 60%.
In the case of `CS(=O)(=O)N(c1cc(-n2nnn(CCCF)c2=O)ccc1Cl)S(C)(=O)=O` [Compound 6], the plant injury at 8000 g/ha ([2]; 8.0 kg/ha) is reported as 90%, the pest or weed control at 8000 g/ha ([3]; 8.0 kg/ha) is reported as 95% and the plant injury at 8000 g/ha ([4]; 8.0 kg/ha) is reported as 70%. It also gave a pest or weed control at 8000 g/ha ([5]; 8.0 kg/ha) of 70%, a plant injury at 8000 g/ha ([6]; 8.0 kg/ha) of 50% and a pest or weed control at 8000 g/ha ([7]; 8.0 kg/ha) of 30%. The plant injury at 8000 g/ha ([8]; 8.0 kg/ha) was 40%, the pest or weed control at 8000 g/ha ([9]; 8.0 kg/ha) was 50% and the plant injury at 8000 g/ha ([10]; 8.0 kg/ha) was 20%. The pest or weed control at 8000 g/ha ([11]; 8.0 kg/ha) was 20%, the pest or weed control at 8000 g/ha ([12]; 8.0 kg/ha) was 60% and the pest or weed control at 8000 g/ha ([13]; 8.0 kg/ha) was 100%. The pest or weed control at 8000 g/ha ([14]; 8.0 kg/ha) was 50%, the pest or weed control at 8000 g/ha ([15]; 8.0 kg/ha) was 20% and the plant injury at 8000 g/ha ([16]; 8.0 kg/ha) was 30%. The plant injury at 8000 g/ha ([17]; 8.0 kg/ha) was 0%, the plant injury at 8000 g/ha ([18]; 8.0 kg/ha) was 30% and the plant injury at 8000 g/ha ([19]; 8.0 kg/ha) was 20%. The pest or weed control at 8000 g/ha ([20]; 8.0 kg/ha) was 100%, the pest or weed control at 8000 g/ha ([21]; 8.0 kg/ha) was 20% and the pest or weed control at 8000 g/ha ([22]; 8.0 kg/ha) was 30%.
With `CS(=O)(=O)N(c1cc(-n2nnn(CCCF)c2=O)c(F)cc1F)S(C)(=O)=O` [Compound 8, 1-[2,4-difluoro-5-[bis(N--methylsulfonyl)amino]phenyl]-1,4-dihydro-4-(3-fluoropropyl)-5H--tetrazol-5-one] the plant injury at 500 g/ha ([1]; 0.5 kg/ha) was 70%, the plant injury at 500 g/ha ([2]; 0.5 kg/ha) was 95% and the pest or weed control at 500 g/ha ([3]; 0.5 kg/ha) was 100%. The plant injury at 500 g/ha ([4]; 0.5 kg/ha) was 95%, the pest or weed control at 500 g/ha ([5]; 0.5 kg/ha) was 30% and the plant injury at 500 g/ha ([6]; 0.5 kg/ha) was 40%. For the same compound, the pest or weed control at 500 g/ha ([7]; 0.5 kg/ha) was 50%, the plant injury at 500 g/ha ([8]; 0.5 kg/ha) was 50% and the pest or weed control at 500 g/ha ([9]; 0.5 kg/ha) was 40%. The plant injury at 500 g/ha ([10]; 0.5 kg/ha) was 40%, the pest or weed control at 500 g/ha ([11]; 0.5 kg/ha) was 50% and the pest or weed control at 500 g/ha ([12]; 0.5 kg/ha) was 60%. It also gave a pest or weed control at 500 g/ha ([13]; 0.5 kg/ha) of 95%, a pest or weed control at 500 g/ha ([14]; 0.5 kg/ha) of 50% and a pest or weed control at 500 g/ha ([15]; 0.5 kg/ha) of 40%. The plant injury at 500 g/ha ([16]; 0.5 kg/ha) was 20%, the plant injury at 500 g/ha ([17]; 0.5 kg/ha) was 10% and the plant injury at 500 g/ha ([18]; 0.5 kg/ha) was 30%. It also gave a plant injury at 500 g/ha ([19]; 0.5 kg/ha) of 30%, a pest or weed control at 500 g/ha ([20]; 0.5 kg/ha) of 40% and a pest or weed control at 500 g/ha ([21]; 0.5 kg/ha) of 30%. For the same compound, the pest or weed control at 500 g/ha ([22]; 0.5 kg/ha) was 40%.
